Measured values: US12404304B1, “Telomerase reverse transcriptase (TERT) expression enhancing compounds and methods for using the same” (Sierra Sciences, LLC, priority 2007, dated 2025)

How the values were obtained:
[1] = tested on: viable cells in culture; assay: Cell viability assay (CellTiter-Glo Luminescent Cell Viability Assay, ATP quantitation, percent of vehicle control)
[2] = tested on: human TERT expression (hTERT mRNA); assay: Quantitative real-time RT-PCR of hTERT mRNA expression (Ct, transcripts) in compound-treated cells; type: cell-based; details: quantitative real-time RT-PCR
Summary of the method: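 Read-out is cycle threshold, the cycle at which probe fluorescence released by Taq 5′-nuclease activity crosses a set level; Ct falls as hTERT mRNA rises. cDNA of treated and untreated cells was compared, with starting transcripts quantified against a known-cDNA standard curve.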

Structure (SMILES)	Average Cell Viability after 24 Hours (% DMSO) [1]	Average Number of hTERT Transcripts [2]
O=C(CN1C(C(=O)c2ccccc2)=C(O)c2ccccc2S1(=O)=O)c1ccc(Br)cc1 [compound 1210]	62.70 % DMSO	26.56
O=C(CN1C(C(=O)c2ccccc2)=C(N2CCCCC2)c2ccccc2S1(=O)=O)c1ccccc1 [compound 1211]	81.77 % DMSO	52.31
O=C(CN1C(C(=O)c2ccccc2)=C(O)c2ccccc2S1(=O)=O)c1ccccc1 [compound 1212]	80.54 % DMSO	38.44
CCCN1C(C(=O)c2ccccc2)=C(OC(=O)CC)c2ccccc2S1(=O)=O [compound 1213]	69.85 % DMSO	5.90
CCCCN1C(C(=O)c2ccccc2)=C(OC(C)=O)c2ccccc2S1(=O)=O [compound 1214]	55.08 % DMSO	32.75
CCCCN1C(C(=O)c2ccccc2)=C(OC(=O)CC)c2ccccc2S1(=O)=O [compound 1215]	52.19 % DMSO	7.76
CCCCN1C(C(=O)c2ccccc2)=C(OC(=O)c2ccco2)c2ccccc2S1(=O)=O [compound 1216]	42.91 % DMSO	5.19
CCCCN1C(C(=O)c2ccccc2)=C(OC(=O)C(C)C)c2ccccc2S1(=O)=O [compound 1217]	45.00 % DMSO	10.04
CCCCC(=O)OC1=C(C(=O)c2ccccc2)N(CC)S(=O)(=O)c2ccccc21 [compound 1218]	82.36 % DMSO	3.35
Cc1nn(C)cc1CNC(=O)C1C2CCC(O2)C1C(=O)O (stereo not drawn) [compound 1220]	48.07 % DMSO	6.37
COc1ccc(OC)c(NC(=O)C2C3CCC(O3)C2C(=O)O)c1 (stereo not drawn) [compound 1221]	86.33 % DMSO	68.62
O=C(O)C1C2CCC(O2)C1C(=O)NCc1ccco1 (stereo not drawn) [compound 1222]	102.27 % DMSO	15.04
O=C(O)C1C2CCC(O2)C1C(=O)N1CCN(c2ccc(F)cc2)CC1 (stereo not drawn) [compound 1223]	44.16 % DMSO	24.63
N=c1ccn2c(n1)O[C@@H]1[C@@H](O)[C@H](CO)O[C@@H]12 [compound 1226]	77.96 % DMSO	31.01
Cc1cc(C)[n+]2nc3n(-c4ccccc4)c(C)cc(C)c-3c2n1 [compound 1227]	77.50 % DMSO	72.86
CCOC(=O)c1ccc(Nc2nc3nonc3nc2N(CC)CC)cc1 [compound 1228]	73.46 % DMSO	48.23
Cc1ccc(Nc2nc3nonc3nc2NC(C)(C)C)cc1C [compound 1229]	79.23 % DMSO	17.57
Cc1ccc(Nc2nc3nonc3nc2Nc2ccccc2F)cc1 [compound 1230]	72.00 % DMSO	17.54
Cc1cccc(Nc2nc3nonc3nc2Nc2ccc(F)cc2)c1C [compound 1231]	37.70 % DMSO	61.08
CCOc1ccc(NC(=O)c2c(NC(=O)c3ccncc3)sc3c2CCC(C(C)(C)C)C3)cc1 (stereo not drawn) [compound 1232]	112.57 % DMSO	23.68
Cc1cccc(NC(=O)c2c(NC(=O)c3ccncc3)sc3c2CCC(C(C)(C)C)C3)c1 (stereo not drawn) [compound 1233]	61.61 % DMSO	41.94
Cn1c2c(c(=O)[nH]c1=O)C(c1ccccc1)C1=C(N2)c2ccccc2C1=O (stereo not drawn) [compound 1234]	53.62 % DMSO	62.81
Cn1c(=O)c2c(nc(SCc3cc4c(cc3Cl)OCO4)n2C)n(C)c1=O [compound 1235]	75.75 % DMSO	153.66
CCc1ccc(S(=O)(=O)N(C(=O)c2ccccc2)c2ccc3oc(C)c(C(C)=O)c3c2)cc1 [compound 1236]	86.61 % DMSO	5.24
CCCCOC(=O)c1c(C)oc2ccc(NS(=O)(=O)c3ccc4ccccc4c3)cc12 [compound 1237]	71.28 % DMSO	43.79
O=C(O)c1c(-c2ccccc2)c2oc3ccccc3c2[nH]c1=O [compound 1238]	89.10 % DMSO	5.16
CCCCCOC(=O)c1c(C)oc2ccc(NS(=O)(=O)c3ccc(OC)cc3)cc12 [compound 1239]	66.47 % DMSO	31.94

Structure (SMILES)	Average Cell Viability after 24 Hours (% DMSO) [1]	Average Number of hTERT Transcripts [2]
Cc1ccc(-n2c(=O)oc3ccc(Cl)cc3c2=O)cc1 [compound 1241]	77.91 % DMSO	39.79
COc1ccccc1-n1c(=O)oc2ccc(Cl)cc2c1=O [compound 1242]	80.60 % DMSO	56.42
COc1ccc(COC(=O)C2=C(C)NC3=C(C(=O)CC(c4ccco4)C3)C2c2cccs2)cc1 (stereo not drawn) [compound 1243]	99.98 % DMSO	5.18
CCOC(=O)C1=C(C)NC2=C(C(=O)CC(c3ccccc3)C2)C1c1cccc(F)c1 (stereo not drawn) [compound 1244]	80.52 % DMSO	9.34
CC1=C(C(=O)OC2CCCC2)C(c2cccc(F)c2)C2=C(CC(c3cccs3)CC2=O)N1 (stereo not drawn) [compound 1245]	79.22 % DMSO	8.42
CC1=C(C(=O)OC2CCCCCC2)C(c2ccc([N+](=O)[O-])cc2)C2=C(CC(C)(C)CC2=O)N1 (stereo not drawn) [compound 1246]	83.08 % DMSO	27.65
CC1=C(C(=O)OC2CCCC2)C(c2ccc(Br)cc2)C2=C(CC(C)(C)CC2=O)N1 (stereo not drawn) [compound 1247]	95.77 % DMSO	74.16
COC(=O)CSC1=C(C#N)C(c2ccco2)C(C(=O)Nc2ccc(Cl)cc2)=C(C)N1 (stereo not drawn) [compound 1248]	57.47 % DMSO	4.69
Brc1n[nH]c2ncnc(N3CCCC3)c12 [compound 1249]	77.92 % DMSO	27.87
Cc1cc(C2CCCCC2)n(O)c(=O)c1 [compound 1250]	67.25 % DMSO	184.64
O=S(=O)(c1cccc(F)c1)N1CCC(Oc2ccc(-n3cnnn3)cc2)CC1 [compound 1251]	65.10 % DMSO	23.22
Oc1ccc2nc(N3CCOCC3)sc2c1 [compound 1252]	96.63 % DMSO	4.21
CCC(O)c1nc2ccccc2n1CCOc1cccc(OC)c1 (stereo not drawn) [compound 1253]	91.13 % DMSO	3.09
COc1ccc(OC)c(NC(=O)CSc2ccc(-c3ccccn3)nn2)c1 [compound 1254]	66.42 % DMSO	47.45
O=C(CSc1ccc(-c2ccccn2)nn1)Nc1ccc2c(c1)OCO2 [compound 1255]	76.32 % DMSO	56.91
O=C(CSc1ccc(-c2ccccn2)nn1)Nc1ccc2c(c1)OCCO2 [compound 1256]	73.30 % DMSO	33.82
O=C(CSc1ccc(-c2ccccn2)nn1)Nc1ccccc1F [compound 1257]	82.05 % DMSO	37.50
Brc1ccc(CSc2ccc(-c3ccccn3)nn2)cc1 [compound 1258]	53.72 % DMSO	12.89
COc1cc(NC(=O)CSc2ccc(-c3ccccn3)nn2)cc(OC)c1 [compound 1259]	60.54 % DMSO	10.70
Clc1cccc(CSc2ccc(-c3ccccn3)nn2)c1 [compound 1260]	60.48 % DMSO	17.25
NC(=O)C1CCN(c2nc3c(S(=O)(=O)c4cccc(Cl)c4)nnn3c3ccsc23)CC1 [compound 1261]	85.18 % DMSO	40.28
CCOc1cc(Br)cc(/C=N/NC(=O)COc2cccc(C)c2)c1O [compound 1262]	57.61 % DMSO	8.78
Cc1ccc(O)c(/C=N/NC(=O)c2ccc(Br)cc2)c1 [compound 1263]	64.51 % DMSO	53.36
O=C(N/N=C/c1cc(Cl)ccc1O)c1ccc(Br)cc1 [compound 1264]	64.22 % DMSO	33.41
O=C(N/N=C/c1ccccn1)c1ccccc1 [compound 1265]	81.94 % DMSO	4.42
O=C(N/N=C/c1c(O)ccc2ccccc12)c1ccc(Cl)c(Cl)c1 [compound 1266]	50.17 % DMSO	14.59
O=C(N/N=C/c1ccccc1O)c1sc2ccccc2c1Cl [compound 1267]	38.10 % DMSO	3.76
